Assay results published in patent publication US7696190B2, “16Alpha-methyl or ethyl substituted estrogens” (N.V. Organon, priority 2000, dated 2010).

Test system: human estrogen receptor α (hERα) or β receptor (hERβ)
Assay: in vitro transactivation bioassay (luciferase reporter) in recombinant CHO cells, estrogenic (agonist) activity compared with estradiol
Assay type: cell-based
Conditions: percentage agonist activity for ER α divided by percentage agonist activity for ER β; CHO cells co-transfected with hERα or hERβ, rat oxytocin promoter and luciferase reporter
Protocol: Compounds are tested for their estrogen receptor activity in a binding assay and in a transactivation assay. The estrogenic and antiestrogenic activity of compounds is determined in an in vitro bioassay with recombinant Chinese hamster ovary (CHO) cells stably co-transfected with the human estrogen receptor α (hERα) or β receptor (hERβ), the rat oxytocin promoter (RO) and the luciferase reporter gene (LUC). The estrogenic activity (potency ratio) of a test compound to stimulate the transactivation of the enzyme luciferase mediated via the estrogen receptors hERα or hERβ is compared with the standard estrogen estradiol. The antiestrogenic activity (potency ratio) of a test compound to inhibit the transactivation of the enzyme luciferase mediated via the estrogen receptors hERα or hERβ by the estrogen estradiol is compared with the standard ICI 164.384 (=(7α,17β)-N-butyl-3,17-dihydroxy-N-methylestra-1,3,5(10)-triene-7-undecanamide). A quantitative parameter for agonist selectivity is obtained by dividing the percentage agonist activity for ER α by the percentage agonist activity for ER β. Compound 11a has agonist selectivity for estrogen receptor α over estrogen receptor β of more than 86 times. Compound 26 has an agonist selectivity for ER α over ER β of 59 times. Compound 27 has agonist selectivity of 88.3 times.

C#CC1(O)C(C)CC2C3CCC4=C(CCC(O)C4)C3C(CC=C)CC21C (stereo not drawn) [Compound 27, (3α,11β,16α,17β)-16-methyl-11-(2-propenyl)-19-norpregn-5(10)-en-20-yne-3,17-diol]
agonist selectivity for estrogen receptor α over estrogen receptor β: 88.3 times
